According to patent publication US20230110676A1, “Method of Treating Diseases” (priority 2020, published 2023):

Columns and labels:
worm = assay: Protective effect on MPP+ detrimental effect, worm survival rate; format: in vivo; conditions: 0.75 mM of MPTP plus 400 μM ergothioneine; ~50% without ergothioneine
Experimental: However, ergothioneine can offer significant protection. The last column is the worm with no ergothioneine or MPTP treatment. The first column is the worm survival rate after treating with 0.75 mM of MPTP.

mouse = assay: Open field experiment, physical activities of disease group at week #57; format: in vivo; conditions: mice, week #57, treated vs control disease group
Text: FIGS. 5A and 5B show the physical activities of untreated disease group and treated disease group at week #57 (open field experiment). A) Real time trace of mouse movement. […] B) Quantitative measurement of the distance each mouse moved during the testing period and the time they spent in the open area.

N2 worm = assay: Protective effect under heat shock conditions; format: in vivo, C. elegans; conditions: N2 worm moved from 20° C. to 42° C.; a few hundred micromolar; 3 hours without
Experimental: Besides the oxidative stress, the protective effect of ergothioneine for the worm under heat shock conditions was also examined. After the worms were cultured multiple days, they were then moved from 20° C. to 42° C. Under such a heat-shock condition, 50% of the worm died within 3 hours. However, in the presence of a few hundred micromolar concentration of ergothioneine, it extends N2 worm's average survival time from 3 hours to nearly 8-9 hours (FIG. 2D).

worm Eat-2 mutant = assay: Life-extension effect on caloric-restriction worm mutant; format: in vivo, C. elegans; conditions: Eat-2 mutant (partial starvation)
Experimental: (§1) To test the biological effect of ergothioneine, the first set of experiments was to test the toxicity level of ergothioneine on the worm model. In humans, ergothioneine is enriched up to 2 mM concentration in many parts of the body. […] At 150 μM, the lifespan of the wild type worm can be extended by 30-40% (FIG. 2A). Over the last two decades, there is numerous evidence supporting the life-extension effect by caloric restriction from various model systems (yeast, worm, fly, and mouse). Thus, the effect of ergothioneine on worm Eat-2 mutant was also examined.

N2 C. elegans = assay: Life-extension effect on worm under regular culture conditions; format: in vivo
Text: In this example, the biological functions of ergothioneine were investigated using C. elegans as the model system. Using C. elegans as the model has several prominent advantages, including short life cycle, simple experimental manipulation, and rich collection of publicly available genetic mutants (e.g., Caenorhabditis Genetics Center). In addition, its genome comprises ⅔ of human disease-related genes.
as §1

[1] = test system: MPTP Parkinson's disease mouse model; assay: MPTP Parkinson's disease mouse model, latency test on rotatory plate/rod; format: in vivo; conditions: mice, 20 mg/Kg MPTP for seven days; ergothioneine 10, 20 mg/kg co-injection or 40 mg/kg in water, 7 days
Experimental: (§2) Parkinson mouse model was induced by 1-methyl-4-phenyl-1,2,3,6-tetrahydropyridine (MPTP), which induced toxicity to dopaminergic neurons (latency test). Behavior test was done by testing mouse behavior: how long can they hold on rotatory plate/rod. The longer they stay, the better their health conditions. After MPTP treatment, mice are clearly much weaker. […] Significance of difference was determined by unpaired two-tailed t-test. #P<0.05 compared with control, *P<0.05, **P<0.01, ****P<0.0001 compared with MPPP-treated control. 1) Latency test results of control group with no MPTP or ergothioneine; 2) Latency test results of mice treated with 20 mg/Kg of MPTP for seven days; 3) Latency test results of mice treated with 20 mg/Kg of MPTP and 10 mg/kg of ergothioneine (co-injection) for seven days; 4) Latency test results of mice treated with 20 mg/Kg of MPTP and 20 mg/kg of ergothioneine (co-injection) for seven days; 5) Latency test results of mice treated with 20 mg/Kg of MPTP and 40 mg/kg of ergothioneine in water for seven days.

[2] = test system: a-Synuclein Overexpression Worm Model; assay: Heat shock experiment in α-synuclein overexpression worm Parkinson's disease model; format: in vivo; conditions: 1.6 mM, 3 hours without
Experimental: FIGS. 13A and B show Protective Effect for Heat-shock for Both Wild-type and a-Synuclein Overexpression Worm Model (Parkinson's disease). Heat shock experiment. α-synuclein was expressed to create worm parkinson's disease model on worm. […] With 1.6 mM of ergothioneine, 50% survival time increased to 8 hours.

daf-16 mutant worm = assay: Life-extension effect on daf-16 mutant worm; format: in vivo, C. elegans
Text: To address this issue, the large collection of C. elegans mutants in Caenorhabditis Genetics Center was again utilized in this example. Among the mutants examined, the daf-16 mutant results stood out (FIGS. 3A, 3B, and 3C). […] Among genes of the IIS pathway, daf-2 encodes an insulin-like receptor, and it is the starting point of the pathway that eventually leads to daf-16. Daf-16 is the hub, where information from several different pathways merge and then use to regulate many physiological processes. Worm daf-16 mutant has an average life-span that is […] the N2 worm (FIGS. 3A, 3B, and 3C).

N2 worms = assay: Protective effect under paraquat-induced oxidative stress; format: in vivo, C. elegans; conditions: N2 worms treated with paraquat
Experimental: Encouraged by the clear life-extension effect on worm model under regular culture conditions in the above example, the protective effect of ergothioneine under stresses was examined. In the first experiment, the worm was treated with paraquat to induce oxidative stress. Under the paraquat-induced oxidative stress conditions, N2 worms' life span was decreased by nearly 50% (FIG. 2C vs. FIG. 2A).

[3] = test system: MPTP Parkinson's disease mouse model; assay: MPTP Parkinson's disease mouse model, pole test; format: in vivo; conditions: mice, 20 mg/Kg MPTP for seven days; ergothioneine 10, 20 mg/kg co-injection or 40 mg/kg in water, 7 days
Experimental: as §2, with “by MPTP.” for “by 1-methyl-4-phenyl-1,2,3,6-tetrahydropyridine (MPTP), which induced toxicity to dopaminergic neurons (latency test).”, “long does it take for the mice to climb to the top of a rod. The shorter time” for “long can”, “they took,” for “they hold on rotatory plate/rod. The longer they stay,”, “health conditions are.” for “health conditions.”, “t-test. ###P<0.05” for “t-test. #P<0.05”, “control, ***P<0.001,” for “control, *P<0.05, **P<0.01,”

C[N+](C)(C)[C@@H](Cc1c[nH]c(=S)[nH]1)C(=O)[O-] [ergothioneine]
worm survival rate (worm): ~90% | physical activities in open field (mouse): demonstrated much more activities | average survival time under heat shock (N2 worm): 8 to 9 h | life extension of Eat-2 worm mutant (worm Eat-2 mutant): can further extend the life | life-extension effect (N2 C. elegans; N2 C. elegans, concentrations as low as 50 μM): robust life-extension effect | lifespan extension (N2 C. elegans; wild type worm, 150 μM): 30-40% | latency test (time held on rotatory plate/rod) [1]: mice are clearly protected from these detrimental effects | 50% survival time under heat shock [2]: 8 h | life-extension effect on daf-16 mutant (daf-16 mutant worm): the life-extension effect was abolished | protective effect under oxidative stress (N2 worms): clearly offers protective effects | pole test (time to climb to the top of a rod) [3]: mice are clearly protected from these detrimental effects
